Test results as given in article PMC9728921, “Characterization of a KDM5 small molecule inhibitor with antiviral activity against hepatitis B virus” (PLOS ONE, 2022).
Entries after “also recorded” stand apart in the source; their conditions may differ.

How the values were obtained:
KDM5A = target: T1, KDM5A (Homo sapiens, UniProt P29375); assay: KDM5A enzymatic assay (CisBio HTRF); format: biochemical
T1 construct: purchased Reaction Biology Corp (assay run there as a contract service)
Description: KDM5A and 5B were tested using CisBio HTRF assay platform by Reaction Biology Corp (Malvern, PA). All concentrations are final unless noted otherwise. Inhibitors were pre-incubated with 2.5 nM KDM5A or 1.2 nM KDM5B in a 5 μL reaction mixture containing 50 mM HEPES (pH 7.5), 50 mM NaCl, 0.01% Tween 20, 0.01% BSA for 15 min temperature. The reaction was initiated by addition of 5 μL of 50 nM Biotin-H3K4me3 and incubated with gentle shaking for 45 min at RT. The reaction was quenched with 10 mM EDTA and 200 mM potassium fluoride. Upon addition of Eu-Antibody and Streptavidine-XL665, the mixture was incubated for 2 hours in the dark. The fluorescence resonance energy transfer was measured using an excitation wavelength of 320 nm and emission wavelength of 665 nm on an Envision plate reader (Perkin Elmer).
(§1) Data was analyzed using GraphPad Prism 6.0 (La Jolla, CA). […] IC50 values were calculated as an average of at least two independent experiments.

KDM5D = target: T2, KDM5D (Homo sapiens, UniProt Q9BY66); assay: KDM5D enzymatic assay (LANCE TR-FRET); format: biochemical; conditions: IC50 of KDM5D over KDM5A
T2 construct: purchased Eurofins Cerep SA (assay run there as a contract service)
T2 sequence (Q9BY66 whole entry): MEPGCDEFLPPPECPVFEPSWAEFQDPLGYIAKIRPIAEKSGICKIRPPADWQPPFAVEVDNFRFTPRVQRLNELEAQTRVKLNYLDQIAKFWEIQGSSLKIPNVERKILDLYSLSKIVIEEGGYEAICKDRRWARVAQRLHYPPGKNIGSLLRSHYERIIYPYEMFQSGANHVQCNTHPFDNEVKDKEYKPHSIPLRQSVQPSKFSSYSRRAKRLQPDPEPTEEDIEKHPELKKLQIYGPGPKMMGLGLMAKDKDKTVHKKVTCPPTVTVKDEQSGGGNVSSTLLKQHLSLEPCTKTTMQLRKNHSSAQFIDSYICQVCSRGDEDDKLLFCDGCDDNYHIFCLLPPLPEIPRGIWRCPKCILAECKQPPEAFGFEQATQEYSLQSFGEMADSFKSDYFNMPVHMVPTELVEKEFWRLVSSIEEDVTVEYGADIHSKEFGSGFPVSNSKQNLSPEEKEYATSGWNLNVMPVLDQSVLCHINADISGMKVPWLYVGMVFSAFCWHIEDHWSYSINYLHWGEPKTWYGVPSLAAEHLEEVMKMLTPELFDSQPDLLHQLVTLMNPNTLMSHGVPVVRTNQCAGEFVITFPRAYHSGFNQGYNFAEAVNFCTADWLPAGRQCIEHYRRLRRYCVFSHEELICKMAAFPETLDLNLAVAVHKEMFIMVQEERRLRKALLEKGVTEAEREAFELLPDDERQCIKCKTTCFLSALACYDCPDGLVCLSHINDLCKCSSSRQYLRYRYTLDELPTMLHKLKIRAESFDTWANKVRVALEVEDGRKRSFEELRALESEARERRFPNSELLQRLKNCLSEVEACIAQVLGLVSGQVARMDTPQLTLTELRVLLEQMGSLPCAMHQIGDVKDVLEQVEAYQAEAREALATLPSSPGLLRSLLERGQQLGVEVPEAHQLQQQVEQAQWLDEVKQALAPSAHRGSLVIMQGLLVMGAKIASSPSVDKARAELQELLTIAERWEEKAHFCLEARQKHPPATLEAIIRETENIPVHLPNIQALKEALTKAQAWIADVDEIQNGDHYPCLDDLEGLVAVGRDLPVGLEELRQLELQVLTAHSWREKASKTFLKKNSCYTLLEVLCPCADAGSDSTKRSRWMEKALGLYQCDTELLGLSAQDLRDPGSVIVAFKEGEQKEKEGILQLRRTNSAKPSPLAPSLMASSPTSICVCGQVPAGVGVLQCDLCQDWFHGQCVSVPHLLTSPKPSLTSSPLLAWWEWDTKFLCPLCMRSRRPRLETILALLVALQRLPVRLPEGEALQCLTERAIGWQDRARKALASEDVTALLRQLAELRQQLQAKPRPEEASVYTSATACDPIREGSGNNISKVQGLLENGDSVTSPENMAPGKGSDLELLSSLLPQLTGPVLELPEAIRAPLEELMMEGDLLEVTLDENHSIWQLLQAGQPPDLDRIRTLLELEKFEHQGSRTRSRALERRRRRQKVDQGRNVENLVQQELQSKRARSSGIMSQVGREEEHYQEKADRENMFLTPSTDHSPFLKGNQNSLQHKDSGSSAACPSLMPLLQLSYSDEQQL
Description: KDM5D was tested using a LANCE TR-FRET assay by Eurofins Cerep SA (France). All concentrations were final unless noted otherwise. Inhibitors were added to a mixture containing 45 mM HEPES/Tris-HCl (pH 7.5), 5 μM ferrous ammonium sulfate, 100 μM ascorbic acid, 10 μM 2-oxoglutarate, 0.01% Tween 20, 0.01% BSA, and 10 ng of enzyme, followed by addition of 100 nM biotin-H3K4me3 substrate. The 10 μL reaction mixture was incubated for 10 min at room temperature and quenched through the addition of 1 mM EDTA to reach a final concentration of 0.33 mM EDTA. After 5 min, the Eu-labeled anti-methyl histone H3K4me1-2 antibody and the Ulight streptavidin were added, and the mixture was incubated for 60 min. The fluorescence resonance energy transfer was measured using an excitation wavelength of 320 nm and emission wavelengths of 620 nm and 665 nm on an Envision plate reader (Perkin Elmer).
as §1

KDM enzymes = assay: KDM enzyme panel, selectivity across KDM families; format: biochemical, human
Description: The following assay protocol was used for all histone demethylases tested except KDM1A, KDM5A, B, and D, which are described below. Compounds were serially diluted into a 384-well Alpha plate as a DMSO solution and mixed with 5 μL reaction buffer (buffer A) containing 50 mM HEPES (pH 7.0), 0.1% BSA, and 0.003% Tween-20. The enzyme of interest was pre-incubated with 15 μM of Fe^2+ for 10 min (except 30 min for KDM2B) in reaction buffer A. 5 μL of the enzyme mixture was added to each of the compound-containing wells and incubated for 10 min. […] The assay plates were read on an Enspire plate reader (PerkinElmer) using a standard AlphaLISA program.
KDM5A and 5B were tested using CisBio HTRF assay platform by Reaction Biology Corp (Malvern, PA). […] The fluorescence resonance energy transfer was measured using an excitation wavelength of 320 nm and emission wavelength of 665 nm on an Envision plate reader (Perkin Elmer). […]
The KDM1 assay was conducted in the presence of […] but without Fe(II) or ascorbic acid. […] The assay plates were read on an Enspire plate reader (PerkinElmer) using a standard AlphaLISA program.
as §1

HBV (genotype C, GTC) = assay: HBV mouse efficacy model (uPA-SCID mice with humanized livers), serum HBV DNA and HBsAg; format: in vivo; conditions: 30 or 100 mg/kg p.o. qd x 7d, one week on one week off, 56 days
Description: The in vivo and in vitro hepatocyte infection model portions of the study were performed by PhoenixBio (Higashi-Hiroshima, Japan). […] Mice were infected with HBV GTC virus (PhoenixBio; PBB004, Lot #160205) and had serum HBV titer levels greater than 1.0E+08 copies/mL seven days prior to study initiation. HBV-infected mice were treated once daily (p.o.) for seven days (Day 0–6) with deionized water for acclimation. […] Fifty μL of blood was collected from animals under isoflurane anesthesia via the retro-orbital plexus/sinus and centrifuged for serum collection for HBsAg and HBV DNA measurements described below. At termination of study (Day 56), 100–200 mg of tissue was harvested from the left lateral liver lobe of all animals.
For in vivo mouse studies, serum HBsAg concentrations were determined by SRL, Inc. (Tokyo, Japan) based on the Chemiluminescent Enzyme Immuno Assay (CLEIA) developed by Fujirebio (Lumipulse® Presto II).
HBV DNA was extracted from 5 μL of serum using the SMITEST EX-R&D Nucleic Acid Extraction Kit (Medical & Biological Laboratories, CO. LTD, Nagoya, Japan) and dissolved in 20 μL nuclease-free water (Thermo Fisher Scientific Inc., Waltham, MA). […] The average serum HBV DNA level was calculated from the values of the two separate wells. […]

T1 sequence (P29375 whole entry): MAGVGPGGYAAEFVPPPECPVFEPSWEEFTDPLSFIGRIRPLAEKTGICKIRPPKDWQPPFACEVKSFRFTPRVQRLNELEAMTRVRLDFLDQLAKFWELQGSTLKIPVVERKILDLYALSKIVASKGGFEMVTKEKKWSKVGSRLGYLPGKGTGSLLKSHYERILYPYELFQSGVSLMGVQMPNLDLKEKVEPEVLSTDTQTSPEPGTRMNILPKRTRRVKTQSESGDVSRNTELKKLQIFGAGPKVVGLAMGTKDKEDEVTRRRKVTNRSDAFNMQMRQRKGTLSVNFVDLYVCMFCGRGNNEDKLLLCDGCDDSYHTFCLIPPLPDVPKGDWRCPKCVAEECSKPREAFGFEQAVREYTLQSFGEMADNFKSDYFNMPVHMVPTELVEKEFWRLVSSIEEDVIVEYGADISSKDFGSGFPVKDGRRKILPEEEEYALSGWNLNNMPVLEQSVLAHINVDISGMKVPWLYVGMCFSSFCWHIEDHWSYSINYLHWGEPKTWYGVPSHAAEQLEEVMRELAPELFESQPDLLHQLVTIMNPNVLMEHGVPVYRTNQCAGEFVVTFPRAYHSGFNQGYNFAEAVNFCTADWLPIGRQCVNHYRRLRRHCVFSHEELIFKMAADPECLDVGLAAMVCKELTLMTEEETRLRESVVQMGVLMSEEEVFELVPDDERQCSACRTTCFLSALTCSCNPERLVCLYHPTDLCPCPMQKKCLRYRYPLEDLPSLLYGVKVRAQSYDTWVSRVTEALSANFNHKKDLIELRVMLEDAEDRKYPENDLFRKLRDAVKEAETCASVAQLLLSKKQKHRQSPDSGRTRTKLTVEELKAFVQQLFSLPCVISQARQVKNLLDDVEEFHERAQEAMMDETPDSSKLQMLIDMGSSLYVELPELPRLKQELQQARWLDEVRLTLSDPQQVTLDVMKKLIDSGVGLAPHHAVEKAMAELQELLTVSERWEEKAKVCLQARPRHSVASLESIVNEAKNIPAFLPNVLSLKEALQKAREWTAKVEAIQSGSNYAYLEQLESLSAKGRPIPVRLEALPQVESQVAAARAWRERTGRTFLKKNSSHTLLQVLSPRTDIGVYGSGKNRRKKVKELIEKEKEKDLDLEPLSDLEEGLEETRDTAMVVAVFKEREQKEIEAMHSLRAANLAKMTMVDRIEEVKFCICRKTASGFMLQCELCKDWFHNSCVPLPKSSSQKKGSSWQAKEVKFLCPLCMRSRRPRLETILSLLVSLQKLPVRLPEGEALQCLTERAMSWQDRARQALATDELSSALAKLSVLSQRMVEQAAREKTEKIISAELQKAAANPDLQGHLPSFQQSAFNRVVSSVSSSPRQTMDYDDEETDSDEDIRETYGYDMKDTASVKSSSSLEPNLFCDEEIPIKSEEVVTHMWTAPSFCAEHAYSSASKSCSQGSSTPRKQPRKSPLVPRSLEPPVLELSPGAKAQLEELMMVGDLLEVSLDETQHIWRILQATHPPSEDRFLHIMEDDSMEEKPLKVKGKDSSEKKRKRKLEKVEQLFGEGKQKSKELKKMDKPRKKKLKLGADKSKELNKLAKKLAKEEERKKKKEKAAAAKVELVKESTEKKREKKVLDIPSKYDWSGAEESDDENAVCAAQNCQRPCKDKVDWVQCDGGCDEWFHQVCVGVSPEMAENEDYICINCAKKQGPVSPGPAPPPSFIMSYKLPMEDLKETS

| Compound | Fold Selectivity Compared to KDM5A (KDM5A; IC50 of KDM5A over KDM5A) [fold] | IC50 (KDM5A; enzyme concentration 2.5 nM, IC50 lower than enzyme concentration, likely underestimates potency) [pM] | Fold Selectivity Compared to KDM5A (KDM5D) [fold] | fold selectivity for KDM5A and KDM5B over members of the KDM4 family (KDM enzymes; KDM4A –C) [fold] | fold selectivity over members of the other KDM enzyme families tested (KDM enzymes; printed as from > 1,100- to > 278,000-fold, relative to KDM5A) | antiviral efficacy: serum HBsAg and HBV DNA (HBV (genotype C, GTC)) |
| --- | --- | --- | --- | --- | --- | --- |
| CCN(CCN(C)C)C(=O)CNCc1cc(C(=O)O)ccn1 [GS-080] | 1 | 360 | 183 | ≥ 13 | > 1,100 fold | – |
| CCOC(=O)c1ccnc(CNCC(=O)N(CC)CCN(C)C)c1 [GS-5801] | – | – | – | – | – | did not result in changes in the amounts of HBsAg or HBV DNA; also recorded: did not have antiviral activity at either dose tested |
